Target: T1, human CTPS1 (Homo sapiens, UniProt P17812)
T1 construct: FLAG (with GG linker); His8 (with GG linker); purchased Proteros biostructures GmbH
T1 sequence (P17812 1-591): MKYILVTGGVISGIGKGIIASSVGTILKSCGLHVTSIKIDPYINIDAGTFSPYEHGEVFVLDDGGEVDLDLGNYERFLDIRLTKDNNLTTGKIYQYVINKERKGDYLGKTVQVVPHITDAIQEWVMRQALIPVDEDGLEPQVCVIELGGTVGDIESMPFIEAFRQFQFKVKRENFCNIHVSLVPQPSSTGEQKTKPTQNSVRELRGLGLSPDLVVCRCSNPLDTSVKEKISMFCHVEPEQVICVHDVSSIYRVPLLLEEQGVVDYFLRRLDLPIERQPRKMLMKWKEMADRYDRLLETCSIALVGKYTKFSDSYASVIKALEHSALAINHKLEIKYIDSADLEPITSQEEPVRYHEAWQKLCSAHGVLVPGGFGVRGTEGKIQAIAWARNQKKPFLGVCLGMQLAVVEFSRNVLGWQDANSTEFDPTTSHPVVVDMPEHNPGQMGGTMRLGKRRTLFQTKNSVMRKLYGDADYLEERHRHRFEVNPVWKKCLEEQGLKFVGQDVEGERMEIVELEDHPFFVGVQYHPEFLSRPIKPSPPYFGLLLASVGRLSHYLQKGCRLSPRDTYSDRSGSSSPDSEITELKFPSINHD
Assay: RapidFire/MS-based enzyme selectivity assay (human CTPS1 versus CTPS2), CTPS1 isoform
Type: biochemical
Summary of the method: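 Full-length C-terminal FLAG-His-tagged CTPS1 (1-591) was preincubated 10 min at 25 °C with compound in HEPES pH 8.0 buffer with MgCl2, KCl, DTT and Tween-20. Reactions were started with a 2× mix of ATP 0.3 mM, UTP 0.2 mM, GTP 0.07 mM and L-glutamine 0.1 mM, and run in the linear phase at 25 °C. IC50 comes from the RapidFire-MS ratio of CTP to 13C9-15N3-CTP.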

[1] = Table 16, human CTPS1 over human CTPS2, RapidFire/MS IC50 values

SMILES	Selectivity (fold selectivity between CTPS1 and CTPS2) (RapidFire/MS IC50 values of CTPS1 and CTPS2, Table 17)	Selectivity (fold selectivity between CTPS1 and CTPS2) [1]
CCOc1cncc(-c2ccc(NC(=O)C3(c4ccnc(NS(=O)(=O)C5CC5)n4)CCN(S(C)(=O)=O)CC3)nc2)n1 [P251]	+++ (>60 fold (+++))	
CCC(NC(=O)c1ccc(-c2cncc(C(F)(F)F)n2)cc1)c1csc(NS(=O)(=O)C2CC2)n1 (stereo not shown) [R5, N-(1-(2-(cyclopropanesulfonamido)thiazol-4-yl)propyl)-4-(6-(trifluoromethyl)pyrazin-2-yl)benzamide]		+ (2-30 fold (+))
CCOc1cncc(-c2ccc(C(=O)NC(C)(C)c3csc(NS(=O)(=O)C4CC4)n3)c(OC)c2)n1 [R7, N-(2-(2-(cyclopropanesulfonamido)thiazol-4-yl)propan-2-yl)-4-(6-ethoxypyrazin-2-yl)-2-methoxybenzamide]		++ (>30-60 fold (++))
CCOc1cncc(-c2ccc(C(=O)NCc3csc(NS(=O)(=O)C4CC4)n3)c(F)c2)n1 [R11, N-((2-(cyclopropanesulfon-amido)thiazol-4-yl)methyl)-4-(6-ethoxypyrazin-2-yl)-2-fluorobenzamide]		++ (>30-60 fold (++))
CCC(CC)(NC(=O)c1ccc(-c2cncc(C(F)(F)F)n2)cc1)c1csc(NS(=O)(=O)C2CC2)n1 [R19, N-(3-(2-(cyclopropanesulfon-amido)thiazol-4-yl)pentan-3-yl)-4-(6-(trifluoromethyl)pyrazin-2-yl)benzamide]		++ (>30-60 fold (++))
CCOc1cncc(-c2cnc(C(=O)NC(C)(C)c3csc(NS(=O)(=O)C4CC4)n3)c(F)c2)n1 [R23, N-(2-(2-(cyclopropanesulfon-amido)thiazol-4-yl)propan-2-yl)-5-(6-ethoxypyrazin-2-yl)-3-fluoropicolinamide]		++ (>30-60 fold (++))
CC(C)(NC(=O)c1ccc(-c2cncc(Cl)n2)cn1)c1csc(NS(=O)(=O)C2CC2)n1 [R25, 5-(6-chloropyrazin-2-yl)-N-(2-(2-(cyclopropanesulfonamido)thiazol-4-yl)propan-2-yl)picolinamide]		++ (>30-60 fold (++))
CCOc1cncc(-c2ccc(C(=O)NC(C)(C)c3csc(NS(=O)(=O)C4CC4)n3)nc2)n1 [R26, N-(2-(2-(cyclopropanesulfon-amido)thiazol-4-yl)propan-2-yl)-5-(6-ethoxypyrazin-2-yl)picolinamide]		+++ (>60 fold (+++))
CCc1cncc(-c2ccc(C(=O)NC(C)(C)c3csc(NS(=O)(=O)C4CC4)n3)c(F)c2)n1 [R41, N-(2-(2-(cyclopropanesulfon-amido)thiazol-4-yl)propan-2-yl)-4-(6-ethylpyrazin-2-yl)-2-fluorobenzamide]		++ (>30-60 fold (++))
CC(C)(NC(=O)c1ccc(-c2cncc(C(F)(F)F)n2)cc1F)c1csc(NS(=O)(=O)C2CC2)n1 [R42, N-(2-(2-(cyclopropanesulfonamido)thiazol-4-yl)propan-2-yl)-2-fluoro-4-(6-(trifluoromethyl)pyrazin-2-yl)benzamide]		++ (>30-60 fold (++))
CC(C)Oc1cncc(-c2ccc(C(=O)NC(C)(C)c3csc(NS(=O)(=O)C4CC4)n3)c(F)c2)n1 [R43, N-(2-(2-(cyclopropanesulfonamido)thiazol-4-yl)propan-2-yl)-2-fluoro-4-(6-isopropoxypyrazin-2-yl)benzamide]		++ (>30-60 fold (++))
Cc1cc(-c2cncc(C(F)(F)F)n2)ccc1C(=O)NC(C)(C)c1csc(NS(=O)(=O)C2CC2)n1 [R45, N-(2-(2-(cyclopropanesulfonamido)thiazol-4-yl)propan-2-yl)-2-methyl-4-(6-(trifluoromethyl)pyrazin-2-yl)benzamide]		++ (>30-60 fold (++))
CCOc1cncc(-c2ccc(C(=O)NC(C)(C)c3csc(NS(=O)(=O)C4CC4)n3)c(C)c2)n1 [R46, N-(2-(2-(cyclopropanesulfonamido)thiazol-4-yl)propan-2-yl)-4-(6-ethoxypyrazin-2-yl)-2-methyl benzamide]		+ (2-30 fold (+))
CCOc1cncc(-c2ccc(C(=O)NC(C)(C)c3csc(NS(=O)(=O)C4CC4)n3)c(C(F)(F)F)c2)n1 [R47, N-(2-(2-(cyclopropanesulfonamido)thiazol-4-yl)propan-2-yl)-4-(6-ethoxypyrazin-2-yl)-2-(trifluoromethyl)benzamide]		+ (2-30 fold (+))
COc1cc(-c2cncc(C(F)(F)F)n2)ccc1C(=O)NC(C)(C)c1csc(NS(=O)(=O)C2CC2)n1 [R48, N-(2-(2-(cyclopropanesulfonamido)thiazol-4-yl)propan-2-yl)-2-methoxy-4-(6-(trifluoromethyl)pyrazin-2-yl)benzamide]		++ (>30-60 fold (++))
CC(C)(NC(=O)c1ccc(-c2cncc(C(F)(F)F)n2)cc1)c1csc(NS(=O)(=O)C2CC2)n1 [R51, N-(2-(2-(cyclopropanesulfon-amido)thiazol-4-yl)propan-2-yl)-4-(6-(trifluoromethyl)pyrazin-2-yl)benzamide]		++ (>30-60 fold (++))
CC(C)(NC(=O)c1ccc(-c2cncc(Cl)n2)cc1)c1csc(NS(=O)(=O)C2CC2)n1 [R52, 4-(6-chloropyrazin-2-yl)-N-(2-(2-(cyclopropanesulfon-amido)thiazol-4-yl)propan-2-yl)benzamide]		+++ (>60 fold (+++))
COc1cncc(-c2ccc(C(=O)NC(C)(C)c3csc(NS(=O)(=O)C4CC4)n3)cc2)n1 [R54, N-(2-(2-(cyclopropanesulfon-amido)thiazol-4-yl)propan-2-yl)-4-(6-methoxypyrazin-2-yl)benzamide]		+ (2-30 fold (+))
CCOc1cncc(-c2ccc(C(=O)NC(C)(C)c3csc(NS(=O)(=O)C4CC4)n3)cc2)n1 [R55, N-(2-(2-(cyclopropanesulfon-amido)thiazol-4-yl)propan-2-yl)-4-(6-ethoxypyrazin-2-yl)benzamide]		+++ (>60 fold (+++))
CC(C)Oc1cncc(-c2ccc(C(=O)NC(C)(C)c3csc(NS(=O)(=O)C4CC4)n3)cc2)n1 [R56, N-(2-(2-(cyclopropanesulfon-amido)thiazol-4-yl)propan-2-yl)-4-(6-isopropoxypyrazin-2-yl)benzamide]		+++ (>60 fold (+++))
CCOc1cncc(-c2ccc(C(=O)NC(C)(C)c3nc(NS(=O)(=O)C4CC4)sc3Cl)nc2)n1 [R73]		+ (2-30 fold (+))
CCOc1cncc(-c2ccc(C(=O)NC(C)(C)c3nc(NS(=O)(=O)C4CC4)sc3C)c(F)c2)n1 [R74, N-(2-(2-(cyclopropanesulfon-amido)-5-methylthiazol-4-yl)propan-2-yl)-4-(6-ethoxypyrazin-2-yl)-2-fluorobenzamide]		++ (>30-60 fold (++))
CCOc1cncc(-c2ccc(C(=O)NC(C)(C)c3nc(NS(=O)(=O)C4CC4)sc3Cl)c(F)c2)n1 [R75, N-(2-(5-chloro-2-(cycloprop-anesulfonamido)thiazol-4-yl)propan-2-yl)-4-(6-ethoxypyrazin-2-yl)-2-fluorobenzamide]		+++ (>60 fold (+++))
Cc1cc(-c2cncc(C(F)(F)F)n2)ccc1C(=O)NC(C)(C)c1nc(NS(=O)(=O)C2CC2)sc1C [R76, N-(2-(2-(cyclopropanesulfon-amido)-5-methylthiazol-4-yl)propan-2-yl)-2-methyl-4-(6-(trifluoromethyl)pyrazin-2-yl)benzamide]		+ (2-30 fold (+))
Cc1sc(NS(=O)(=O)C2CC2)nc1C(C)(C)NC(=O)c1ccc(-c2cncc(C(F)(F)F)n2)cc1 [R78, N-(2-(2-(cyclopropanesulfon-amido)-5-methylthiazol-4-yl)propan-2-yl)-4-(6-(trifluoromethyl)pyrazin-2-yl)benzamide]		++ (>30-60 fold (++))
CC(C)(NC(=O)c1ccc(-c2cncc(C(F)(F)F)n2)cc1)c1nc(NS(=O)(=O)C2CC2)sc1Cl [R79, N-(2-(5-chloro-2-(cycloprop-anesulfonamido)thiazol-4-yl)propan-2-yl)-4-(6-(trifluoromethyl)pyrazin-2-yl)benzamide]		+ (2-30 fold (+))
CCOc1cncc(-c2ccc(C(=O)NC3(c4csc(NS(=O)(=O)C5CC5)n4)CC3)nc2)n1 [R80, N-(1-(2-(cyclopropanesulfon-amido)thiazol-4-yl)cyclo-propyl)-5-(6-ethoxypyrazin-2-yl)picolinamide]		+++ (>60 fold (+++))
CCOc1cncc(-c2ccc(C(=O)NC3(c4csc(NS(=O)(=O)C5CC5)n4)CC3)c(F)c2)n1 [R82, N-(1-(2-(cyclopropanesulfon-amido)thiazol-4-yl)cyclo-propyl)-4-(6-ethoxypyrazin-2-yl)-2-fluorobenzamide]		+++ (>60 fold (+++))

Source: patent US20230086703A1, “N-(4-(5-chloropyridin-3-yl)phenyl)-2-(2-(cyclopropanesulfonamido)pyrimidin-4-yl) butanamide derivatives and related compounds as human CTPS1 inhibitors for the treatment of proliferative diseases” (Step Pharma S.A.S., priority 2019, published 2023)
